# Where two headings read alike, the source gives them in different places.
# System: 280 human cancer cell lines
# Assay: OncoPanel cell proliferation assay (10-day)
# Assay type: cell-based
# Conditions: Homo sapiens; for IC50: read-out: Cell Count IC50; for EC50: read-out: Cell Count EC50; for GI50: read-out: Cell Count GI50
# [1] = SJRH30, SJRH30, Soft Tissue - Sarcoma
# [2] = SJSA-1, SJSA1, Soft Tissue - Osteosarcoma
# [3] = SK-LMS-1, SK-LMS-1, Soft Tissue - Sarcoma
# [4] = SK-MEL3, SK-MEL-3, Skin (Melanoma)
# [5] = SK-MEL-1, SK-MEL-1, Skin (Melanoma)
# [6] = SK-MEL-28, SK-MEL-28, Skin (Melanoma)
# [7] = SK-OV-3, SKOV3, Female GU - Ovary
# [8] = SK-UT-1, SK-UT-1, Soft Tissue - Sarcoma
# [9] = SW579, SW579, Endocrine - Thyroid
# [10] = SW684, SW684, Soft Tissue - Sarcoma
compound,measurement,setting,value
"CC(C)=CCC[C@@H]1C(O)Oc2c(C)cc(O)c3c2[C@H]1CC[C@H]3C (some centres unmarked) [Compound 2, 5,18-epoxyserrulat-14-en-8,18-diol]",IC50,"SCaBER, Bladder",11.5 µM
same,EC50,"SH-4, Skin (Melanoma)",9.6 µM
same,GI50,"SH-4, Skin (Melanoma)",11.8 µM
same,IC50,"SH-4, Skin (Melanoma)",11.9 µM
same,EC50,"SHP77, SHP-77, Lung - SCLC",8.01 µM
same,GI50,"SHP77, SHP-77, Lung - SCLC",7.9 µM
same,IC50,"SHP77, SHP-77, Lung - SCLC",8.01 µM
same,EC50,[1],5.09 µM
same,GI50,[1],5.07 µM
same,IC50,[1],5.1 µM
same,EC50,[2],7.11 µM
same,GI50,[2],7.02 µM
same,IC50,[2],7.11 µM
same,EC50,"SK-BR-3, SK-BR-3, Breast",12.2 µM
same,GI50,"SK-BR-3, SK-BR-3, Breast",11.9 µM
same,IC50,"SK-BR-3, SK-BR-3, Breast",12.2 µM
same,EC50,[3],6.79 µM
same,GI50,[3],11.2 µM
same,IC50,[3],11.3 µM
same,EC50,[4],22 µM
same,GI50,[4],20.8 µM
same,EC50,[5],15.7 µM
same,GI50,[5],14.7 µM
same,IC50,[5],15.7 µM
same,EC50,[6],9.46 µM
same,GI50,[6],9.85 µM
same,IC50,[6],9.89 µM
same,EC50,"SK-MES-1, SKMES1, Lung - NSCLC",7.8 µM
same,GI50,"SK-MES-1, SKMES1, Lung - NSCLC",7.67 µM
same,IC50,"SK-MES-1, SKMES1, Lung - NSCLC",7.8 µM
same,EC50,"SK-N-AS, CNS - Neuroblastoma",6.23 µM
same,GI50,"SK-N-AS, CNS - Neuroblastoma",7.7 µM
same,IC50,"SK-N-AS, CNS - Neuroblastoma",7.92 µM
same,EC50,"SK-N-DZ, CNS - Neuroblastoma",> 30 µM
same,GI50,"SK-N-DZ, CNS - Neuroblastoma",> 30 µM
same,IC50,"SK-N-DZ, CNS - Neuroblastoma",> 30 µM
same,EC50,"SK-N-FI, CNS - Neuroblastoma",> 30 µM
same,GI50,"SK-N-FI, CNS - Neuroblastoma",> 30 µM
same,IC50,"SK-N-FI, CNS - Neuroblastoma",> 30 µM
same,EC50,[7],15.4 µM
same,GI50,[7],15.2 µM
same,IC50,[7],15.4 µM
same,EC50,"SK-PN-DW, Stomach",10.8 µM
same,GI50,"SK-PN-DW, Stomach",10.9 µM
same,IC50,"SK-PN-DW, Stomach",10.9 µM
same,EC50,[8],11.7 µM
same,GI50,[8],11.6 µM
same,IC50,[8],11.7 µM
same,EC50,"SKO-007, SKO-007, Myeloma",1.59 µM
same,GI50,"SKO-007, SKO-007, Myeloma",1.42 µM
same,IC50,"SKO-007, SKO-007, Myeloma",1.59 µM
same,EC50,"SNB-19, SNB-19, CNS - Glioma",17.3 µM
same,GI50,"SNB-19, SNB-19, CNS - Glioma",16.8 µM
same,IC50,"SNB-19, SNB-19, CNS - Glioma",17.3 µM
same,EC50,"SNU1, SNU-1, Stomach",8.51 µM
same,GI50,"SNU1, SNU-1, Stomach",9.41 µM
same,IC50,"SNU1, SNU-1, Stomach",9.42 µM
same,EC50,"SNU-5, SNU-5, Stomach",> 30 µM
same,GI50,"SNU-5, SNU-5, Stomach",> 30 µM
same,IC50,"SNU-5, SNU-5, Stomach",> 30 µM
same,EC50,"SNU-16, SNU-16, Stomach",9.96 µM
same,GI50,"SNU-16, SNU-16, Stomach",9.91 µM
same,IC50,"SNU-16, SNU-16, Stomach",9.96 µM
same,EC50,"SNU-423, SNU-423, Liver",5.29 µM
same,GI50,"SNU-423, SNU-423, Liver",5.26 µM
same,IC50,"SNU-423, SNU-423, Liver",5.31 µM
same,EC50,"SR, Lymphoma",10.7 µM
same,GI50,"SR, Lymphoma",10.7 µM
same,IC50,"SR, Lymphoma",10.7 µM
same,EC50,"ST486, ST486, Lymphoma",3.87 µM
same,GI50,"ST486, ST486, Lymphoma",3.86 µM
same,IC50,"ST486, ST486, Lymphoma",3.87 µM
same,EC50,"SU-DHL10, SU-DHL-10, Lymphoma",9.92 µM
same,GI50,"SU-DHL10, SU-DHL-10, Lymphoma",9.9 µM
same,IC50,"SU-DHL10, SU-DHL-10, Lymphoma",9.92 µM
same,EC50,"SU-DHL-4, SU-DHL-4, Lymphoma",4.2 µM
same,GI50,"SU-DHL-4, SU-DHL-4, Lymphoma",4.2 µM
same,IC50,"SU-DHL-4, SU-DHL-4, Lymphoma",4.2 µM
same,EC50,"SU-DHL-5, SU-DHL-5, Lymphoma",4.28 µM
same,GI50,"SU-DHL-5, SU-DHL-5, Lymphoma",4.27 µM
same,IC50,"SU-DHL-5, SU-DHL-5, Lymphoma",4.28 µM
same,EC50,"SU-DHL-8, SU-DHL-8, Lymphoma",7.4 µM
same,GI50,"SU-DHL-8, SU-DHL-8, Lymphoma",7.4 µM
same,IC50,"SU-DHL-8, SU-DHL-8, Lymphoma",7.4 µM
same,EC50,"SU.86.86, SU.86.86, Pancreas",13.1 µM
same,GI50,"SU.86.86, SU.86.86, Pancreas",> 30 µM
same,IC50,"SU.86.86, SU.86.86, Pancreas",> 30 µM
same,EC50,"SUP-T1, SUP-T1, Lymphoma",12.1 µM
same,GI50,"SUP-T1, SUP-T1, Lymphoma",12 µM
same,IC50,"SUP-T1, SUP-T1, Lymphoma",12.1 µM
same,EC50,"SW48, SW48, Colon",8.73 µM
same,GI50,"SW48, SW48, Colon",8.65 µM
same,IC50,"SW48, SW48, Colon",8.73 µM
same,EC50,[9],12.3 µM
same,GI50,[9],12.2 µM
same,IC50,[9],12.3 µM
same,EC50,[10],> 30 µM
same,GI50,[10],> 30 µM
same,IC50,[10],> 30 µM
same,EC50,"SW837, SW837, Colon",> 30 µM
same,GI50,"SW837, SW837, Colon",> 30 µM

# Reference: patent US11331299B2, “Medicinal use of serrulatane diterpenes” (The University of Sydney, priority 2016, dated 2022)
